Experimental data taken from the CheMixHub viscosity set.
Several values for one entry are separate records, joined by “and”; a condition that tells them apart may be missing. Identical values can stand only once.

Experiment: xn = mol fraction of the nth substance listed

ClC(Cl)(Cl)Cl + C[N+](=O)[O-]
Settings	viscosity [mPa·s]
298 K, 101.3 kPa, x1 = 0.0959	0.636
298 K, 101.3 kPa, x1 = 0.1961	0.655
298 K, 101.3 kPa, x1 = 0.3609	0.702
298 K, 101.3 kPa, x1 = 0.5088	0.751
298 K, 101.3 kPa, x1 = 0.7487	0.805
298.15 K, 101 kPa, x2 = 0.1023	0.884
298.15 K, 101 kPa, x2 = 0.1662	0.8265
298.15 K, 101 kPa, x2 = 0.2011	0.8405
298.15 K, 101 kPa, x2 = 0.2958	0.8074
298.15 K, 101 kPa, x2 = 0.3102	0.7692
298.15 K, 101 kPa, x2 = 0.3946	0.7776
298.15 K, 101 kPa, x2 = 0.4351	0.7285
298.15 K, 101 kPa, x2 = 0.4978	0.7481
298.15 K, 101 kPa, x2 = 0.5452	0.6969
298.15 K, 101 kPa, x2 = 0.6013	0.7175
298.15 K, 101 kPa, x2 = 0.6424	0.6735
298.15 K, 101 kPa, x2 = 0.701	0.6857
298.15 K, 101 kPa, x2 = 0.7297	0.6556
298.15 K, 101 kPa, x2 = 0.799	0.6627
298.15 K, 101 kPa, x2 = 0.8077	0.6427
298.15 K, 101 kPa, x2 = 0.878	0.6339
298.15 K, 101 kPa, x2 = 0.9009	0.6481
298.15 K, 101 kPa, x2 = 0.9419	0.6295
303.15 K, 101 kPa, x2 = 0.1	0.7718
303.15 K, 101 kPa, x2 = 0.1023	0.8319
303.15 K, 101 kPa, x2 = 0.2	0.7427
303.15 K, 101 kPa, x2 = 0.2011	0.7922
303.15 K, 101 kPa, x2 = 0.2958	0.7599
303.15 K, 101 kPa, x2 = 0.3	0.7058
303.15 K, 101 kPa, x2 = 0.3946	0.735
303.15 K, 101 kPa, x2 = 0.4	0.6831
303.15 K, 101 kPa, x2 = 0.4978	0.7052
303.15 K, 101 kPa, x2 = 0.5	0.6569
303.15 K, 101 kPa, x2 = 0.6	0.6415
303.15 K, 101 kPa, x2 = 0.6013	0.6783
303.15 K, 101 kPa, x2 = 0.7	0.624
303.15 K, 101 kPa, x2 = 0.701	0.6511
303.15 K, 101 kPa, x2 = 0.799	0.6308
303.15 K, 101 kPa, x2 = 0.8	0.6126
303.15 K, 101 kPa, x2 = 0.9	0.6123
303.15 K, 101 kPa, x2 = 0.9009	0.6177
308.15 K, 101 kPa, x2 = 0.1	0.7423
308.15 K, 101 kPa, x2 = 0.1023	0.7884
308.15 K, 101 kPa, x2 = 0.2	0.6974
308.15 K, 101 kPa, x2 = 0.2011	0.7475
308.15 K, 101 kPa, x2 = 0.2958	0.7146
308.15 K, 101 kPa, x2 = 0.3	0.668
308.15 K, 101 kPa, x2 = 0.3946	0.6899
308.15 K, 101 kPa, x2 = 0.4	0.6479
308.15 K, 101 kPa, x2 = 0.4978	0.6672
308.15 K, 101 kPa, x2 = 0.5	0.626
308.15 K, 101 kPa, x2 = 0.6	0.6063
308.15 K, 101 kPa, x2 = 0.6013	0.6432
308.15 K, 101 kPa, x2 = 0.7	0.5927
308.15 K, 101 kPa, x2 = 0.701	0.6169
308.15 K, 101 kPa, x2 = 0.799	0.5981
308.15 K, 101 kPa, x2 = 0.8	0.5834
308.15 K, 101 kPa, x2 = 0.9	0.5735
308.15 K, 101 kPa, x2 = 0.9009	0.5901
313.15 K, 101 kPa, x2 = 0.1023	0.7324
313.15 K, 101 kPa, x2 = 0.2011	0.6952
313.15 K, 101 kPa, x2 = 0.2958	0.674
313.15 K, 101 kPa, x2 = 0.3946	0.648
313.15 K, 101 kPa, x2 = 0.4978	0.6232
313.15 K, 101 kPa, x2 = 0.6013	0.6053
313.15 K, 101 kPa, x2 = 0.701	0.5841
313.15 K, 101 kPa, x2 = 0.799	0.5675
313.15 K, 101 kPa, x2 = 0.9009	0.5621
318 K, 101.3 kPa, x1 = 0.0897	0.5256
318 K, 101.3 kPa, x1 = 0.1941	0.5442
318 K, 101.3 kPa, x1 = 0.3589	0.5822
318 K, 101.3 kPa, x1 = 0.5073	0.6189
318 K, 101.3 kPa, x1 = 0.7644	0.6719
318.15 K, 101 kPa, x2 = 0.1	0.6487
318.15 K, 101 kPa, x2 = 0.2	0.6201
318.15 K, 101 kPa, x2 = 0.3	0.5962
318.15 K, 101 kPa, x2 = 0.4	0.5782
318.15 K, 101 kPa, x2 = 0.5	0.5609
318.15 K, 101 kPa, x2 = 0.6	0.546
318.15 K, 101 kPa, x2 = 0.7	0.5328
318.15 K, 101 kPa, x2 = 0.8	0.5246
318.15 K, 101 kPa, x2 = 0.9	0.5207

CCc1ccc(O)cc1 + C[N+](C)(C)CCO.[Cl-]
298.15 K, 101.33 kPa
Settings	viscosity
x1 = 0.7	143.3 mPa·s
x1 = 0.8	84.18 mPa·s and 62.12 mPa·s and 53.08 mPa·s
x1 = 0.9	49.12 mPa·s

CCN(CC)CC + Cc1cc(C)cc(C)c1
viscosity [mPa·s], 101 kPa
Settings	x2 = 0.1033	x2 = 0.2154	x2 = 0.2645	x2 = 0.3959	x2 = 0.5072	x2 = 0.6007	x2 = 0.7132	x2 = 0.7989	x2 = 0.8692
293.15 K	0.386	0.41	0.422	0.453	0.484	0.517	0.56	0.593	0.628
303.15 K	0.35	0.369	0.378	0.407	0.432	0.462	0.497	0.526	0.557
313.15 K	0.315	0.334	0.342	0.368	0.391	0.416	0.449	0.473	0.5
323.15 K	0.288	0.304	0.312	0.335	0.357	0.378	0.407	0.429	0.452

CC(C)[O-].CC(C)[O-].CC(C)[O-].CC(C)[O-].[Ti+4] + Cc1ccc(C)cc1
viscosity [mPa·s], 101.3 kPa
Settings	x1 = 0.0401	x1 = 0.0871	x1 = 0.1382	x1 = 0.1994	x1 = 0.2719	x1 = 0.3593	x1 = 0.4654	x1 = 0.5987	x1 = 0.77
293.15 K	0.671	0.7098	0.7652	0.8373	0.9143	1.042	1.235	1.53	2.053
303.15 K	0.5881	0.6215	0.6649	0.7153	0.7695	0.855	0.9724	1.137	1.398
313.15 K	0.5226	0.5494	0.5813	0.6238	0.6641	0.7258	0.8058	0.9111	1.063
323.15 K	0.4655	0.4896	0.5162	0.5501	0.5849	0.6326	0.6922	0.7664	0.871

CCN(CC)CC + Cc1ccc(C)cc1
303.15 K, 101 kPa
Settings	viscosity [mPa·s]
x1 = 0.0103	0.5611
x1 = 0.02055	0.5576
x1 = 0.03043	0.5525
x1 = 0.04261	0.5488
x1 = 0.05408	0.5433
x1 = 0.06646	0.5381
x1 = 0.07602	0.5342
x1 = 0.08463	0.5307
x1 = 0.09589	0.5253
x1 = 0.1075	0.5207

ClC(Cl)(Cl)Cl + Cc1ccc(C)cc1
298.15 K, 101 kPa
Settings	viscosity [mPa·s]
x2 = 0.1	0.87
x2 = 0.2	0.8339
x2 = 0.3	0.7997
x2 = 0.4	0.7675
x2 = 0.5	0.7372
x2 = 0.6	0.7087
x2 = 0.7	0.6816
x2 = 0.8	0.6556
x2 = 0.9	0.6301

ClC(Cl)(Cl)Cl + Cc1cccc(C)c1
298.15 K, 101 kPa
Settings	viscosity [mPa·s]
x1 = 0.1974	0.609
x1 = 0.3803	0.665
x1 = 0.4687	0.716
x1 = 0.5267	0.751
x1 = 0.5964	0.792
x1 = 0.7155	0.851
x1 = 0.8693	0.894
x1 = 0.9105	0.902

CCN(CC)CC + Cc1ccccc1
303.15 K, 101 kPa
Settings	viscosity [mPa·s]
x1 = 0.01196	0.5137
x1 = 0.02231	0.5093
x1 = 0.03105	0.5049
x1 = 0.04186	0.4993
x1 = 0.04881	0.4963
x1 = 0.0617	0.4911
x1 = 0.0685	0.4859
x1 = 0.07915	0.4823
x1 = 0.09159	0.4786
x1 = 0.1002	0.4755

ClC(Cl)(Cl)Cl + Cc1ccccc1
viscosity [mPa·s], 101 kPa
Settings	293.15 K	298.15 K	303.15 K	313.15 K
x1 = 0.1022	0.6227	0.5867	0.5527	0.4932
x1 = 0.1977	0.6508	0.6111	0.5749	0.5126
x1 = 0.3029	0.6875	0.6446	0.606	0.5394
x1 = 0.4043	0.7215	0.6753	0.634	0.5628
x1 = 0.4982	0.7585	0.712	0.6656	0.5897
x1 = 0.5988	0.7983	0.7461	0.6988	0.6181
x1 = 0.7091	0.8428	0.7861	0.7353	0.6485
x1 = 0.8107	0.8905	0.8298	0.7755	0.6831
x1 = 0.916	0.9415	0.88	0.8249	0.719
x2 = 0.1	–	0.8643	–	–
x2 = 0.2	–	0.8211	–	–
x2 = 0.3	–	0.7802	–	–
x2 = 0.4	–	0.7415	–	–
x2 = 0.5	–	0.7049	–	–
x2 = 0.6	–	0.6705	–	–
x2 = 0.7	–	0.6381	–	–
x2 = 0.8	–	0.6078	–	–
x2 = 0.9	–	0.5794	–	–

ClC(Cl)(Cl)Cl + Cc1ccccc1C
298.15 K, 101 kPa
Settings	viscosity [mPa·s]
x1 = 0.0656	0.722
x1 = 0.2424	0.636
x1 = 0.4464	0.606
x1 = 0.5536	0.628
x1 = 0.5803	0.639
x1 = 0.6341	0.666
x1 = 0.793	0.772
x1 = 0.9312	0.872
